The experiment concerns BDF1 mice, P388 leukemia ip, median survival T/C. The experiment can be described thus: NCI In Vivo Anticancer Drug Screen. Data for tumor model P388 Leukemia (intraperitoneal) in B6D2F1 (BDF1) mice. The conditions noted are these: endpoint: median survival time, higher = longer survival. The essentials: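 Survival ratio, drug arm over vehicle arm, in mice with a transplanted tumour.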

The mark [1] stands for this setting: dose: 50.0 mg/kg/injection, schedule: Q01DX009 (ip), vehicle: saline with Tween-80.
Where [2] appears, read: dose: 100.0 mg/kg/injection, schedule: Q01DX009 (ip), vehicle: saline with Tween-80.
The mark [3] stands for this setting: dose: 200.0 mg/kg/injection, schedule: Q01DX009 (ip), vehicle: saline with Tween-80.
Where [4] appears, read: dose: 100.0 mg/kg/injection, schedule: Q04DX003 (ip), vehicle: saline with Tween-80.
Where [5] appears, read: dose: 400.0 mg/kg/injection, schedule: Q04DX003 (ip), vehicle: saline with Tween-80.
The mark [6] stands for this setting: dose: 25.0 mg/kg/injection, schedule: Q01DX009 (ip), vehicle: saline with Tween-80.
The mark [7] stands for this setting: dose: 25.0 mg/kg/injection, schedule: Q04DX003 (ip), vehicle: water.
Setting [8] is: dose: 50.0 mg/kg/injection, schedule: Q04DX003 (ip), vehicle: water.

Values joined by “and” are separate entries in the source; they are usually repeats but may differ in a detail not shown here. Identical values can stand only once. Inconclusive results and toxic doses are left out.

As to `O=C1Nc2ccc(Br)cc2C1=Nc1ccc(Cl)cc1`, the T/C runs as follows: under setting [1], 101 % of control; under setting [2], 105 % of control; under setting [3], 118 % of control.
In the case of `CN(C)C(=O)Nc1ccc(Cl)cc1`, the T/C reads like this: (dose: 50.0 mg/kg/injection, schedule: Q01DX001 (ip), vehicle: saline with Tween-80) 95 % of control; (dose: 100.0 mg/kg/injection, schedule: Q01DX001 (ip), vehicle: saline with Tween-80) 100 % of control; (dose: 200.0 mg/kg/injection, schedule: Q01DX001 (ip), vehicle: saline with Tween-80) 104 % of control.
For the compound `COc1cccc2c1C(=O)c1c(O)c3c(c(O)c1C2=O)C[C@@](O)(C(=O)CO)C[C@@H]3OC1CC(NC(=O)C(F)(F)F)C(O)C(C)O1` (stereo partly drawn), the T/C is, setting by setting: (dose: 3.13 mg/kg/injection, schedule: Q04DX009 (ip), vehicle: other) 113 % of control; (dose: 6.25 mg/kg/injection, schedule: Q04DX009 (ip), vehicle: other) 121 % of control; (dose: 12.5 mg/kg/injection, schedule: Q04DX009 (ip), vehicle: other) 123 % of control.
Turning to `COC(=O)C(C)CN1CCCCCC1` (stereo not drawn), the T/C reads like this: (dose: 50.0 mg/kg/injection, schedule: Q01DX009 (ip), vehicle: saline) 109 % of control; (dose: 100.0 mg/kg/injection, schedule: Q01DX009 (ip), vehicle: saline) 90 % of control; (dose: 200.0 mg/kg/injection, schedule: Q01DX009 (ip), vehicle: saline) 109 % of control.
Take `CC(=O)N1c2cc3ccccc3cc2N(C(C)=O)c2cc3ccccc3cc21`: the T/C by setting is: under setting [2], 102 % of control; under setting [3], 97 % of control; (dose: 400.0 mg/kg/injection, schedule: Q01DX009 (ip), vehicle: saline with Tween-80) 117 % of control.
Regarding `CSc1nc(Cl)cc(N2CC2)n1`, the T/C by setting is: (dose: 0.19 mg/kg/injection, schedule: Q04DX003 (ip), vehicle: saline) 104 % of control; (dose: 0.39 mg/kg/injection, schedule: Q01DX009 (ip), vehicle: saline) 95 % of control; (dose: 0.39 mg/kg/injection, schedule: Q04DX003 (ip), vehicle: saline) 109 % of control; (dose: 0.5 mg/kg/injection, schedule: Q01DX009 (ip), vehicle: saline) 91 % of control; (dose: 0.78 mg/kg/injection, schedule: Q01DX009 (ip), vehicle: saline) 100 % of control; (dose: 0.78 mg/kg/injection, schedule: Q04DX003 (ip), vehicle: saline) 100 % of control. The T/C is 116 % of control (dose: 1.0 mg/kg/injection, schedule: Q01DX009 (ip), vehicle: saline); 95 % of control (dose: 2.0 mg/kg/injection, schedule: Q01DX009 (ip), vehicle: saline); 100 % of control (dose: 3.6 mg/kg/injection, schedule: Q04DX003 (ip), vehicle: saline).
Turning to `O=c1c2ccccc2cc2ccccn12`, the T/C (dose: 100.0 mg/kg/injection, schedule: Q01DX009 (ip), vehicle: Klucel (hydroxypropylcellulose) (HPC)) was 109 % of control; the T/C (dose: 100.0 mg/kg/injection, schedule: Q04DX003 (ip), vehicle: Klucel (hydroxypropylcellulose) (HPC)) is 91 % of control; the T/C (dose: 200.0 mg/kg/injection, schedule: Q01DX009 (ip), vehicle: Klucel (hydroxypropylcellulose) (HPC)) was 109 % of control; the T/C (dose: 200.0 mg/kg/injection, schedule: Q04DX003 (ip), vehicle: Klucel (hydroxypropylcellulose) (HPC)) is 95 % of control.
For the compound `COC1CC(N=[N+]=[N-])C(OS(C)(=O)=O)C(C)O1` (stereo not drawn), the T/C runs as follows: under setting [4], 101 % of control; (dose: 200.0 mg/kg/injection, schedule: Q04DX003 (ip), vehicle: saline with Tween-80) 102 % of control; under setting [5], 101 % of control.
With `Cc1ccc(C(O)(c2ccccc2)C2C(c3ccccc3)N2C2CCCCC2)cc1` (stereo not drawn), the T/C reads like this: (dose: 50.0 mg/kg/injection, schedule: Q01DX001 (ip), vehicle: saline sonified) 96 % of control; (dose: 100.0 mg/kg/injection, schedule: Q01DX001 (ip), vehicle: saline sonified) 96 % of control; (dose: 200.0 mg/kg/injection, schedule: Q01DX001 (ip), vehicle: saline sonified) 92 % of control.
`Cn1c(C(C)(C)O)cnc1[N+](=O)[O-]`: the T/C runs as follows: (dose: 12.5 mg/kg/injection, schedule: Q01DX009 (ip), vehicle: saline with Tween-80) 105 % of control; under setting [6], 105 % of control; under setting [1], 110 % of control.
With `CS(=O)(=O)ON1C(=O)c2ccccc2C1=O`, where the note is “dose: 100.0 mg/kg/injection, schedule: Q04DX003 (ip), vehicle: saline”, the T/C was 120 % of control.
On to `NC(=S)N1N=C(c2cccc([N+](=O)[O-])c2)CCC1=O`, for which the T/C runs as follows: under setting [4], 100 % of control; under setting [5], 100 % of control.
Regarding `CN(C)CCCNC1=CC(=O)c2ccccc2C1=O`, the T/C (dose: 1.56 mg/kg/injection, schedule: Q04DX003 (ip), vehicle: water) is 108 % of control; the T/C (dose: 3.12 mg/kg/injection, schedule: Q04DX003 (ip), vehicle: water) was 97 % of control and 98 % of control; the T/C (dose: 6.25 mg/kg/injection, schedule: Q01DX009 (ip), vehicle: water) was 99 % of control; the T/C (dose: 6.25 mg/kg/injection, schedule: Q04DX003 (ip), vehicle: water) is 91 % of control and 101 % of control; the T/C (dose: 12.5 mg/kg/injection, schedule: Q01DX009 (ip), vehicle: water) is 103 % of control; the T/C (dose: 12.5 mg/kg/injection, schedule: Q04DX003 (ip), vehicle: water) was 97 % of control and 102 % of control. Besides, the T/C was 110 % of control (dose: 25.0 mg/kg/injection, schedule: Q01DX009 (ip), vehicle: water); 103 % of control and 119 % of control under setting [7]; 94 % of control (dose: 50.0 mg/kg/injection, schedule: Q01DX009 (ip), vehicle: water); 91 % of control under setting [8]; 103 % of control (dose: 100.0 mg/kg/injection, schedule: Q01DX009 (ip), vehicle: water).
For `Cc1cc(C(C(N)=O)c2ccccc2)ccc1N(CCCl)CCCl` (stereo not drawn), the T/C (dose: 0.22 mg/kg/injection, schedule: Q01DX009 (ip), vehicle: Klucel (hydroxypropylcellulose) (HPC)) was 112 % of control; the T/C (dose: 0.33 mg/kg/injection, schedule: Q01DX009 (ip), vehicle: Klucel (hydroxypropylcellulose) (HPC)) is 108 % of control; the T/C (dose: 0.77 mg/kg/injection, schedule: Q01DX009 (ip), vehicle: Klucel (hydroxypropylcellulose) (HPC)) is 155 % of control; the T/C (dose: 2.34 mg/kg/injection, schedule: Q01DX009 (ip), vehicle: Klucel (hydroxypropylcellulose) (HPC)) is 154 % of control; the T/C (dose: 4.68 mg/kg/injection, schedule: Q01DX009 (ip), vehicle: Klucel (hydroxypropylcellulose) (HPC)) was 186 % of control; the T/C (dose: 6.0 mg/kg/injection, schedule: Q04DX003 (ip), vehicle: saline) is 118 % of control. Further, the T/C reads like this: (dose: 12.37 mg/kg/injection, schedule: Q01DX009 (ip), vehicle: Klucel (hydroxypropylcellulose) (HPC)) 96 % of control and 205 % of control; (dose: 13.75 mg/kg/injection, schedule: Q04DX003 (ip), vehicle: Klucel (hydroxypropylcellulose) (HPC)) 178 % of control; (dose: 18.75 mg/kg/injection, schedule: Q01DX009 (ip), vehicle: Klucel (hydroxypropylcellulose) (HPC)) 103 % of control; (dose: 27.5 mg/kg/injection, schedule: Q04DX003 (ip), vehicle: Klucel (hydroxypropylcellulose) (HPC)) 213 % of control; (dose: 28.12 mg/kg/injection, schedule: Q01DX009 (ip), vehicle: Klucel (hydroxypropylcellulose) (HPC)) 110 % of control; (dose: 35.0 mg/kg/injection, schedule: Q04DX003 (ip), vehicle: Klucel (hydroxypropylcellulose) (HPC)) 218 % of control. In addition, the T/C (dose: 55.0 mg/kg/injection, schedule: Q04DX003 (ip), vehicle: Klucel (hydroxypropylcellulose) (HPC)) was 272 % of control and 221 % of control; the T/C (dose: 80.0 mg/kg/injection, schedule: Q04DX003 (ip), vehicle: Klucel (hydroxypropylcellulose) (HPC)) is 272 % of control.
For `CCOC(=O)c1cnn(C)c1N`, the T/C by setting is: under setting [6], 93 % of control; under setting [7], 109 % of control; under setting [1], 102 % of control; under setting [8], 99 % of control; under setting [2], 100 % of control; (dose: 100.0 mg/kg/injection, schedule: Q04DX003 (ip), vehicle: water) 114 % of control. Moreover, the T/C was 91 % of control (dose: 200.0 mg/kg/injection, schedule: Q04DX003 (ip), vehicle: water) and 116 % of control (dose: 400.0 mg/kg/injection, schedule: Q04DX003 (ip), vehicle: water).

For the origin of these results see PubChem BioAssay AID328 (DTP/NCI, 2004).
